Entries after “also recorded” stand apart in the source; their conditions may differ. Read-outs that look alike come from different tables or passages of the source.
Tests used:
S. mansoni schistosomula = experiment: In vitro schistosomula screening (Roboworm platform), phenotype and motility; assay type: cell-based, Schistosoma mansoni; settings: for hit / activity against schistosomula, single-point screen: hit cut-offs phenotype -0.15, motility -0.35; for SELECTIVITY INDEX Schistosomula Phenotype: CC50 HepG2 / schistosomula phenotype EC50; for EC50: Schistosoma mansoni; for SELECTIVITY INDEX Schistosomula Motility: CC50 HepG2 / schistosomula motility EC50
Protocol: Briefly, 384-well tissue culture plates (Perkin Elmer, cat 6007460), containing 20 μl of Basch medium, were wet-stamped using a Biomek NX^P liquid handling platform (Beckman Coulter, UK) with negative (0.625% dimethyl sulfoxide, DMSO) and positive controls (AUR and PZQ at 10 μM final concentration in 0.625% DMSO) as well as 37 SGC compounds (at 10 μM final concentration in 0.625% DMSO). […] To each pre-loaded well (single concentration or titration screens), a total of 100–120 mechanically transformed schistosomula (in 60 μl) were deposited via a WellMate (Thermo Scientific, UK). Schistosomula/compound co-cultures (80 μl in total) were then incubated at 37°C for 72 h in a humidified atmosphere containing 5% CO2. At 72 h, tissue culture plates (containing schistosomula/compound co-cultures) were imaged under the same conditions (37°C in a humidified atmosphere containing 5% CO2) using an ImageXpressXL high content imager (Molecular Devices, UK) with subsequent images processed for phenotype and motility as previously reported and successfully implemented by us at Aberystwyth University. Single point schistosomula screens (10 μM) were repeated two or three times whereas dose response titrations were performed once. Zˊ values obtained from all schistosomula screens ranged from 0.27–0.48 (mean = 0.40) for phenotype and 0.41–0.56 (mean = 0.48) for motility.

H3K36me2 = H3K36me2 detection in adult worm histone extracts; assay type: cell-based, Schistosoma mansoni; settings: adult schistosome pairs, 72 h, vs DMSO
Protocol: LLY-507 (6.25 μM), BAY-598 (25 μM) or siSmp_000700 treated male and female worms (alongside DMSO or siLuc controls; 21 individuals per condition) were homogenized with a TissueLyser (Qiagen) and total histones extracted using the EpiQuik^TM Total Histone Extraction Kit (Epigentek). Levels of H3K36me2 in adult histone extracts were measured using the EpiQuik^TM Global Di-Methyl Histone H3-K36 Quantification Kit (Fluorimetric, Epigentek). Technical duplicates of three biological replicates of each treatment were analysed according to the manufacturer’s instructions. Fluorescent readings (530EX/590EM nm) were obtained using a POLARstar Omega (BMG Labtech, UK) microtiter plate reader. Fluorescent values of the samples were corrected by subtracting the fluorescent readings of the blank (buffer only, provided in the kit). The mean of the adjusted control values (DMSO for LLY-507/BAY-598 treated worms and siLuc for siSmp_000700 treated worms) was set at 100% H3K36me2 and the standard deviation (SD) was calculated from the normalised values.

[1] = system: adult male and female schistosome pairs; experiment: In vitro adult schistosome screening (WHO/TDR motility, egg counts); assay type: cell-based, Schistosoma mansoni; settings: for SELECTIVITY INDEX Adult Females: CC50 HepG2 / adult female EC50; for SELECTIVITY INDEX Adult Males: CC50 HepG2 / adult male EC50; for EC50: Schistosoma mansoni
Protocol: In vitro screening was replicated three times on different dates to account for any biological variation. Briefly three adult worm pairs/well (48-well tissue culture plate format) were placed into DMEM (Gibco, Paisley, UK) supplemented with 10% (v/v) FCS (Gibco, Paisley, UK), 1% (v/v) L-glutamine (Gibco, Paisley, UK) and an antibiotic mixture (150 Units/ml penicillin and 150 μg/ml streptomycin; Gibco, UK). DMSO (0.5% negative control), AUR (10 μM concentration in 0.5% DMSO; positive control) and two-fold titrations of SGC compounds (50 μM– 6.25 μM or 50 μM– 0.05 μM; in 0.5% DMSO max) were added, and together, these adult worm/compound co-cultures were incubated at 37°C for 72 h in a humidified atmosphere containing 5% CO2. Following compound incubation, WHO/TDR readouts of adult worm motility, abundance of H3K36me2 (LLY-507 and BAY-598 treated worms only) in histone extracts and egg counts/well were recorded at 72 h.

[2] = HepG2 cell cytotoxicity, MTT assay; assay type: cell-based, Human; settings: human, HepG2 cells, read-out: CC50 (HepG2) (95% Confidence Intervals)
Protocol: (§1) Human Hepatocyte Carcinoma (HepG2) cells (Sigma Aldrich, UK) were utilized to assess SGC epigenetic probe cell cytotoxicity in the application of the MTT (3-(4,5-dimethylthiazol-2-yl)-2,5-diphenyltetrazolium bromide) assay. Briefly, cells were passaged at 70–80% confluence and seeded (20,000 cells/ 50 μL per well) in a 96-well, black-sided, clear-bottomed falcon plate (Fisher Scientific, UK) with the final plate column (8 wells) being treated as a blank (media only). Following a 24 h incubation (5% CO2, 37°C, humidified), HepG2 cells were then treated with 50 μL of pre-warmed media (37°C) containing SGC EPs/EIs at 200 μM to 0.02 μM (final concentration 100 μM, 10 μM, 1 μM, 0.1 μM and 0.01 μM). Three positive (1% Triton X-100) and negative (1% DMSO) control wells per plate were additionally included.
(§2) After addition of compounds, each plate was then incubated for a further 20 h before application of MTT for assessment of overt compound cytotoxicity using the MTT assay. The MTT assay was read using the POLARstar Omega (BMG LabTech, UK) plate reader at an absorbance of 570 nm. CC50s were calculated in GraphPad Prism.

HepG2 cells = experiment: HepG2 cell cytotoxicity, MTT assay; assay type: cell-based, Human; settings: 20 h, read-out: CC50 (HepG2) (95% Confidence Intervals)
Protocol: as §1, §2

miracidia = system: miracidia; parameters: method as in Roquis et al., 2018; settings: ref Roquis et al., 2018; cited from earlier work
[3] = not told; cited from earlier work
[4] = system: in vitro laid eggs (IVLEs) of adult worm pairs; experiment: Vitellocyte and egg volume quantification of in vitro laid eggs (LSCM); assay type: cell-based, Schistosoma mansoni; settings: 6.25 μM, 72 h, n = 10 eggs
Excerpt: Fluorescent microscopic images (10 eggs per treatment) were captured on a Leica TCS SP8 super resolution laser confocal microscope fitted with a 63 X (water immersion) objective using the Leica Application Suite X. Green (egg autofluorescence) fluorescence was visualised with an argon or diode-pumped, solid state (DPSS) laser at 488 nm. DAPI was visualised using a 405 nm blue diode laser. The number of vitellocytes (DAPI^+ cells) and overall volume (mapped by the green autofluorescence) for individual eggs were calculated using IMARIS 7.3 software (Bitplane).

[5] = 72 h, two-fold titration 10 μM–0.625 μM, single replicate, approximate, read-out: SCHISTOSOMULA EC50 Phenotype
[6] = 72 h, motility, adult females, read-out: ADULT EC50 (95% Confidence Intervals) Females
[7] = 72 h, motility, adult males, read-out: ADULT EC50 (95% Confidence Intervals) Males

Compound	hit / activity against schistosomula, single-point screen (S. mansoni schistosomula; 10 μM, 72 h)	SELECTIVITY INDEX Schistosomula Phenotype (S. mansoni schistosomula)	EC50 (S. mansoni schistosomula; [5]) [µM]	SELECTIVITY INDEX Adult Females [1]	SELECTIVITY INDEX Adult Males [1]	EC50 [1, 6] [µM]	EC50 [1, 7] [µM]	CC50 at 20 h [2] [µM]	SELECTIVITY INDEX Schistosomula Motility (S. mansoni schistosomula)	miracidia to sporocyst transformation (miracidia)	also measured
CCN(C(=O)CO)[C@H]1CN(C(=NC#N)Nc2cccc(OC(F)F)c2)N=C1c1ccc(Cl)c(Cl)c1 [BAY-598, (S)-N-[1-{N′-Cyano-N-[3-(difluoromethoxy)phenyl]carbamimidoyl}-3-(3,4-dichlorophenyl)-4,5-dihydro-1H-pyrazol-4-yl]-N-ethyl-2-hydroxyacetamide]	are hits against schistosomula; also recorded: both active against schistosomula	10.40	4.81	3.02	2.24	16.5	22.4	> 50	–	–	reduction in H3K36me2 (H3K36me2; 25 μM): 23%
COc1ccccc1C(=O)Nc1cc2c(cc1N1CCCC1)n(C)c(=O)n2C [PFI-4, N-(1,3-dimethyl-2-oxo-6-(pyrrolidin-1-yl)-2,3-dihydro-1H-benzo[d]imidazol-5-yl)-2-methoxybenzamide]	–	19.18	–	3.20	3.33	–	–	> 50	19.52	–	EC50 (S. mansoni schistosomula; 72 h, read-out: SCHISTOSOMULA EC50 Motility): 5.12 µM; EC50 (S. mansoni schistosomula; 72 h, read-out: SCHISTOSOMULA EC50 Phenotype): 5.22 µM; EC50 ([1]; 72 h, read-out: ADULT EC50 (95% Confidence Intervals) Females): 31.2 µM; EC50 ([1]; 72 h, read-out: ADULT EC50 (95% Confidence Intervals) Males): 30.1 µM; CC50 (HepG2 cells): > 100 µM
COc1cc2c(cc1OCCCN1CCCC1)N=C(N)C21CCC1 [A-366, 5'-Methoxy-6'-[3-(1-pyrrolidinyl)propoxy]spiro[cyclobutane-1,3'-indol]-2'-amine]	–	–	–	–	–	–	–	–	–	completely block	–
O=C(O)CCNc1cc(N2CCc3ccccc3CC2)nc(-c2ccccn2)n1 [GSK-J1]	None of these chemotype controls demonstrated anti-schistosomula activity	–	–	–	–	–	–	–	–	–	cell permeability [3]: cell impermeable; adult worm motility and IVLE production ([1]; 3.13 μM and 6.25 μM, 72 h, vs DMSO): did not substantially alter these phenotypes; number of vitellocytes per egg (packaging into IVLEs) [4]: did not; overall egg volume [4]: no difference
CCCc1cc(C)[nH]c(=O)c1CNC(=O)c1cc(-c2ccnc(N3CCN(C)CC3)c2)cc2c1cnn2C(C)C [GSK343, N-[(1,2-Dihydro-6-methyl-2-oxo-4-propyl-3-pyridinyl)methyl]-1-(1-methylethyl)-6-[2-(4-methyl-1-piperazinyl)-4-pyridinyl]-1H-indazole-4-carboxamide, N-[(6-Methyl-2-oxo-4-propyl-1,2-dihydropyridin-3-yl)methyl]-6-[2-(4-methylpiperazin-1-yl)pyridin-4-yl]-1-(propan-2-yl)-1H-indazole-4-carboxamide]	identified as a hit	9.24	3.17	1.16	1.17	25.3	25	29.2	–	completely block	–
Cc1cn(CCN2CCN(c3ccccc3-c3cc(C#N)cc(C(=O)NCCCN4CCCC4)c3)CC2)c2ccccc12 [LLY-507, 5-(2-(4-(2-(9-methyl-7-aza-bicyclo[4.3.0]nona-1(6),2,4,8-tetraen-7-yl)-ethyl)-piperazin-1-yl)-phenyl)-3-((3-(pyrrolidin-1-yl)-propylamino)-formyl)-benzonitrile]	are hits against schistosomula; also recorded: both active against schistosomula	8.24	2.88	3.13	2.55	7.59	9.32	23.8	8.47	–	schistosomula phenotype by microscopic assessment (S. mansoni schistosomula; 10 μM, 72 h): phenotypes comparable to auranofin; EC50 (S. mansoni schistosomula; 72 h, two-fold titration 10 μM–0.625 μM, single replicate, approximate, read-out: SCHISTOSOMULA EC50 Motility): 2.81 µM; reduction in H3K36me2 (H3K36me2; 6.25 μM): 25%
